Like-named read-outs stand apart in the source and are kept apart here. Residues, ends and D or L forms follow the SMILES beside them. *: point of attachment. Palmitoyl = CCCCCCCCCCCCCCCC(=O)*
How the values were obtained:
TRPV6 G488R = assay: Whole-cell patch clamp, TRPV6 G488R; type: cell-based, human; details: HEK293 cells; for inhibition of current (in words): Figure 2D
Source text: (§1) N-terminally TagRFP-labeled human TRPV6 (725 aa) was kindly provided by R. Bhardwaj and M. Hediger (University of Bern, Bern, Switzerland). This variant is translated from the first ATG codon and thus deviates from the non-ATG-initiated protein which is expressed in vivo (accession number NM_018646.6) by lacking 40 amino acids of the very N-terminus. For N-terminal labeling with EYFP, TRPV6 was cloned into pEYFP-C1 (Clontech) via EcoRI and SacII restriction sites. Mutations (F468A, R470A, F472A, K484A/Q, G488R, R492A/Q, I575A, G579A, D580A/K, H582A, W583A/F, H587A, R589A, W593A, R632A/Q, R470A, W583F) were introduced using the QuickChange XL site-directed mutagenesis kit (Stratagene, San Diego, CA, USA) and Pfu DNA Polymerase (Promega, Madison, WI, USA). pTagRFP-hTRPV6 I575A was kindly provided by the lab of M. Hediger (University of Bern, Bern, Switzerland). Forward and reverse primers for site-directed mutagenesis were synthesized by Eurofins genomics GmbH (Wien, Vienna, Austria). Intactness of the constructs in terms of sequence was confirmed by sequencing (Microsynth Austria GmbH, Wien, Vienna, Austria; Eurofins genomics GmbH, Wien, Vienna, Austria). In the present experiments, Tag-RFP-labeled constructs were implemented for NFAT screens, patch clamp measurements, and Fura-2-based Ca^2+ imaging, while for R.Geco1.2 measurements, TRPV6 WT and mutants were used which carried an EYFP label at the N-terminus (pEYFP-C1 vector) to avoid spectral overlap. R.Geco1.2 was purchased from Addgene (No. 45494), and mCherry-CRY2-5ptase OCRL was established in the lab of P. De Camilli and was derived from Addgene (No. 66836), as was CIBN-CAAX (No. 79574). Plasmids encoding for mCerulean3-CRY2-5′ ptase OCRL, YFP-CIBN-CAAX, and the mCherry-tagged PH domain were provided by K. Groschner (Medical University of Graz, Graz, Austria). […] CFP-NFAT (NFATc1, equivalent to NFAT2) was kindly provided by R. Kehlenbach (Scripps Research Institute, La Jolla, CA, USA).
Cultivation of human embryonic kidney (HEK) 293 cells occurred in DMEM supplemented with 10% fetal calf serum, penicillin (100 U/mL), and streptomycin (100 µg/mL) at 37 °C under humidified atmosphere containing 5% CO2. Transient transfection was performed 20–24 h prior to experiments using the TransFectin lipid reagent (Bio-Rad, Hercules, CA, USA), in accordance with the instructions of the supplier. For Ca^2+ imaging using R.Geco1.2, 2 μg of the indicator-encoding plasmid were additionally transfected, while 1 μg plasmid DNA was routinely used per construct in all other cases. […]
(§2) Electrophysiological experiments were performed at 20 °C to 24 °C in whole-cell recording configurations of the patch clamp technique. […] The liquid junction potential was determined as 12 mV; the voltages were not adjusted. […]

TRPV6 WT = target: T1, TRPV6 WT (Homo sapiens, UniProt Q9H1D0); assay: Whole-cell patch clamp, TRPV6 WT; type: cell-based; details: for re-activation after washout with DMSO: 0.1 μM cis-22a or 10 μM pal-PIP2 peptide, then diluted DMSO, n=4 each, Figure S6C,D
T1 construct: expressed in transfected cells; host or cells: HEK293 cells, transient transfection
T1 sequence (Q9H1D0 41-765 limits assumed): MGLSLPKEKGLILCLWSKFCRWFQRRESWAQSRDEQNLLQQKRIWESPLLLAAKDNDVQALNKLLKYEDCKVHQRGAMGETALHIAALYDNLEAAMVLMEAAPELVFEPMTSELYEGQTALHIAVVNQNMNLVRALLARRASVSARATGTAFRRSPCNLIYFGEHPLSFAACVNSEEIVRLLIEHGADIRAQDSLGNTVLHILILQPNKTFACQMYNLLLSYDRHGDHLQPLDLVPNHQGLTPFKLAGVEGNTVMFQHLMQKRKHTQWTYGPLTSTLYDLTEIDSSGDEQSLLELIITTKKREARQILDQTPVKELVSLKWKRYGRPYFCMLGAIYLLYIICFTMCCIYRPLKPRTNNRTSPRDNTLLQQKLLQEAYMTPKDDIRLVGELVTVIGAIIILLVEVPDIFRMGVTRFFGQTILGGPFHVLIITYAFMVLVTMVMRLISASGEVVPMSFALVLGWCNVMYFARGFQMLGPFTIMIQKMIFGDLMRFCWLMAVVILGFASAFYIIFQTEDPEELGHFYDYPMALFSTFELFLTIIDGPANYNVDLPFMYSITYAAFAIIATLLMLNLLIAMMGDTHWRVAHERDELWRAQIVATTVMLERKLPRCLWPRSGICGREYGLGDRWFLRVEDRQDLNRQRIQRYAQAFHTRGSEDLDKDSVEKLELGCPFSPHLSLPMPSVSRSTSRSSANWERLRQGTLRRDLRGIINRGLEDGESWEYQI
Source text: as §1
Cultivation of human embryonic kidney (HEK) 293 cells occurred in DMEM supplemented with 10% fetal calf serum, penicillin (100 U/mL), and streptomycin (100 µg/mL) at 37 °C under humidified atmosphere containing 5% CO2. Transient transfection was performed 20–24 h prior to experiments using the TransFectin lipid reagent (Bio-Rad, Hercules, CA, USA), in accordance with the instructions of the supplier. For Ca^2+ imaging using R.Geco1.2, 2 μg of the indicator-encoding plasmid were additionally transfected, while 1 μg plasmid DNA was routinely used per construct in all other cases. For patch clamp experiments, cells were reseeded on poly-L-lysine-coated glass slides at least 4 h prior to experiments. To exclude mycoplasma contaminations, culture supernatants were regularly tested by means of the VenorGem Advanced Mycoplasma Detection kit (VenorGEM, Berlin, Germany).
Electrophysiological experiments were performed at 20 °C to 24 °C in whole-cell recording configurations of the patch clamp technique. A Ag/AgCl electrode was used as a reference electrode. The implemented voltage ramp protocol included a holding potential of +50 mV, wherefrom voltage was ramped from −90 mV to +90 mV within 200 ms with an interval of 5 s between individual ramps. For the time courses, the inward current density at −74 mV was considered. The internal pipette solution contained 145 mM cesium methane sulfonate, 8 mM NaCl, 3.5 mM MgCl2, 10 mM HEPES, and 20 mM EGTA (pH 7.2). For electrophysiological measurements, the basic extracellular solution was composed of 145 mM NaCl, 5 mM CsCl, 1 mM MgCl2, 10 mM HEPES, 10 mM glucose, and 10 mM CaCl2 (pH 7.4). Leak correction of currents was performed by subtracting the residual current after 1 mM La^3+ application at the end of the experiment. The liquid junction potential was determined as 12 mV; the voltages were not adjusted. Clampfit 11.1.0.23 and OriginPro 2020b software were used for data analysis. All experiments were conducted on a minimum of two different days.

TRPV6 R492Q = assay: Whole-cell patch clamp, TRPV6 R492Q; type: cell-based, human; details: HEK293 cells, p < 0.05
Source text: N-terminally TagRFP-labeled human TRPV6 (725 aa) was kindly provided by R. Bhardwaj and M. Hediger (University of Bern, Bern, Switzerland). This variant is translated from the first ATG codon and thus deviates from the non-ATG-initiated protein which is expressed in vivo (accession number NM_018646.6) by lacking 40 amino acids of the very N-terminus. For N-terminal labeling with EYFP, TRPV6 was cloned into pEYFP-C1 (Clontech) via EcoRI and SacII restriction sites. Mutations (F468A, R470A, F472A, K484A/Q, G488R, R492A/Q, I575A, G579A, D580A/K, H582A, W583A/F, H587A, R589A, W593A, R632A/Q, R470A, W583F) were introduced using the QuickChange XL site-directed mutagenesis kit (Stratagene, San Diego, CA, USA) and Pfu DNA Polymerase (Promega, Madison, WI, USA). pTagRFP-hTRPV6 I575A was kindly provided by the lab of M. Hediger (University of Bern, Bern, Switzerland). Forward and reverse primers for site-directed mutagenesis were synthesized by Eurofins genomics GmbH (Wien, Vienna, Austria). Intactness of the constructs in terms of sequence was confirmed by sequencing (Microsynth Austria GmbH, Wien, Vienna, Austria; Eurofins genomics GmbH, Wien, Vienna, Austria). In the present experiments, Tag-RFP-labeled constructs were implemented for NFAT screens, patch clamp measurements, and Fura-2-based Ca^2+ imaging, while for R.Geco1.2 measurements, TRPV6 WT and mutants were used which carried an EYFP label at the N-terminus (pEYFP-C1 vector) to avoid spectral overlap. R.Geco1.2 was purchased from Addgene (No. 45494), and mCherry-CRY2-5ptase OCRL was established in the lab of P. De Camilli and was derived from Addgene (No. 66836), as was CIBN-CAAX (No. 79574). Plasmids encoding for mCerulean3-CRY2-5′ ptase OCRL, YFP-CIBN-CAAX, and the mCherry-tagged PH domain were provided by K. Groschner (Medical University of Graz, Graz, Austria). […]
as §2

SMILES	inhibition of current (in words) (TRPV6 G488R; 0.1 µM cis-22a, 10 mM Ca2+)	inhibition of current (in words) (TRPV6 G488R; 10 µM cis-22a (hundredfold higher dose), after 0.1 µM)	re-activation after washout with DMSO (TRPV6 WT; HEK293 cells)	inhibition of current (in words) (TRPV6 WT; HEK293 cells, 10 µM cis-22a, after 0.1 µM, Figure 2D)	inhibition of current (TRPV6 WT; HEK293 cells, 10 μM cis-22a, 10 mM Ca2+, relative to La3+ block, Figure 4C)	current inhibition vs TRPV6 WT (TRPV6 R492Q; 0.1 μM cis-22a)	current inhibition vs TRPV6 WT (TRPV6 R492Q; 10 μM cis-22a, after 0.1 μM)	inhibition of current (TRPV6 G488R; 10 μM pal-PIP2 peptide, relative to 1 mM La3+, n=4, Figure S1E)	apparent inhibition of current (TRPV6 G488R; 20 μM pal-PIP2 peptide, 10 mM Ca2+, relative to 1 mM La3+, Figure 2B)	IC50 (TRPV6 WT) [µM]	inhibition at 20 µM (TRPV6 WT; HEK293, read-out: apparent inhibition of current) [%]	inhibition at 10 µM (TRPV6 WT; HEK293, read-out: inhibition of current) [%]	inhibition at 10 µM (TRPV6 WT; HEK293, read-out: mean percentage of inhibition (current)) [%]	inhibition at 10 µM (TRPV6 WT; HEK293, read-out: mean percentage of inhibition (residual current)) [%]	Ca2+ selectivity (TRPV6 WT; HEK293 cells, 10 μM pal-PIP2 peptide, current-voltage relationship, Figure S1D)	reduction of current density (in words) (TRPV6 WT; HEK293 cells, Figure 1C,D, S1B–D)	Hill coefficient of dose–response (TRPV6 WT; HEK293 cells, Hill fit, 0.1 μM to 30 μM)	effect at further increased concentration (TRPV6 WT; HEK293 cells, above 30 μM up to 100 μM, supposedly due to increased DMSO concentration)	maximum inhibition of TRPV6 currents (plateau) (TRPV6 WT; HEK293 cells, plateau from 20 μM on)	sensitivity to peptide-based PIP2 sequestration vs WT (TRPV6 R492Q; 10 μM pal-PIP2 peptide, Figure 4D)
Cc1cccc(C2CCC(N3CCN(c4cccnc4)CC3)CC2)c1.O=C(O)C(F)(F)F (stereo not drawn) [cis-22a]	not inhibited	essentially unaffected	no re-activation occurred	almost complete block	~ 98%	significantly reduced	significantly reduced inhibition													
CCCCCCCCCCCCCCCC(=O)N[C@@H](Cc1c[nH]cn1)C(=O)N[C@@H](CCCNC(=N)N)C(=O)N[C@@H](CCC(N)=O)C(=O)N[C@@H](CCCCN)C(=O)N[C@@H](Cc1c[nH]cn1)C(=O)N[C@@H](Cc1ccccc1)C(=O)N[C@@H](CCC(=O)O)C(=O)N[C@@H](CCCCN)C(=O)N[C@@H](CCCNC(=N)N)C(=O)N[C@@H](CCCNC(=N)N)C(N)=O [pal-PIP2 peptide] (Palmitoyl-HRQKHFEKRR-NH2)			no re-activation occurred					~ 4%	about 24%	4.47	~63	~56	51.6	54	remained unchanged	reduced in a dose-dependent manner	1.95	rapid membrane rupture or leaky measurements	about 60%	significantly reduced sensitivity
